According to ChEMBL document CHEMBL3886459, “Benzylamine derivatives as inhibitors of plasma kallikrein” (2016):

Tests used:
Kallikrein-1 = Kallikrein-1 (Homo sapiens, UniProt P06870); experiment: (§1) In Vitro Inhibition Assay: KLK1 inhibitory activity in vitro was determined using standard published methods (see e.g. Johansen et al., Int. J. Tiss. Reac. 1986, 8, 185; Shori et al., Biochem. Pharmacol., 1992, 43, 1209; Stürzebecher et al., Biol. Chem. Hoppe-Seyler, 1992, 373, 1025). Human KLK1 (Callbiochem) was incubated at 37° C. with the fluorogenic substrate H-DVal-Leu-Arg-AFC and various concentrations of the test compound. Residual enzyme activity (initial rate of reaction) was determined by measuring the change in […] at 410 nm and the IC50 value for the test compound was determined.
Plasma kallikrein = Plasma kallikrein (Homo sapiens, UniProt P03952); experiment: as §1, with “Plasma kallikrein” for “KLK1”, “Stiirzebecher” for “Stürzebecher”, “plasma kallikrein (Protogen)” for “KLK1 (Callbiochem)”, “H-DPro-Phe-Arg-AFC” for “H-DVal-Leu-Arg-AFC”; format: cell-free
Coagulation factor XII = target: T1, Coagulation factor XII (Homo sapiens, UniProt P00748); experiment: Enzyme Assay: Human serine protease enzymes plasmin, thrombin, trypsin, Factor Xa and Factor XIIa were assayed for enzymatic activity using an appropriate fluorogenic substrate. Protease activity was measured by monitoring the accumulation of liberated fluorescence from the substrate over 5 minutes. The linear rate of fluorescence increase per minute was expressed as percentage (%) activity. The …
T1 sequence (P00748 whole entry): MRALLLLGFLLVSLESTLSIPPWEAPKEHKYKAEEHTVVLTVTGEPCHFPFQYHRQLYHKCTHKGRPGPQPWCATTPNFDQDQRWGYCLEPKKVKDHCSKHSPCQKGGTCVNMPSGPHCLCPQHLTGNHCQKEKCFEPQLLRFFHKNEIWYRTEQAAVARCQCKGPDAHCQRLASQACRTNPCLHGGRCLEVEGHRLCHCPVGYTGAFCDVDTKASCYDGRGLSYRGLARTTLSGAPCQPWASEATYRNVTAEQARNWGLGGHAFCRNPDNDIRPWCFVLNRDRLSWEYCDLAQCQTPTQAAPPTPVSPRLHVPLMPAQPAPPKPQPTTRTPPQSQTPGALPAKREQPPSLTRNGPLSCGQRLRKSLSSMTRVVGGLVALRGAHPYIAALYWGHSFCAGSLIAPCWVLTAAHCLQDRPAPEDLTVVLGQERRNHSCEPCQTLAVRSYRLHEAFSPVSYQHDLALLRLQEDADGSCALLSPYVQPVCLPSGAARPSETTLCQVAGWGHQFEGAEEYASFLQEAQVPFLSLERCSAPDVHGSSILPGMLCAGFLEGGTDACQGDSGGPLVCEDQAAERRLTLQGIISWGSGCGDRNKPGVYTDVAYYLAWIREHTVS
Description: Enzyme Assay: Human serine protease enzymes plasmin, thrombin, trypsin, Factor Xa and Factor XIIa were assayed for enzymatic activity using an appropriate fluorogenic substrate. Protease activity was measured by monitoring the accumulation of liberated fluorescence from the substrate over 5 minutes. The linear rate of fluorescence increase per minute was expressed as percentage (%) activity. The Km for the cleavage of each substrate was determined by standard transformation of the Michaelis-Menten equation.

Kallikrein-1, sequence (P06870 whole entry): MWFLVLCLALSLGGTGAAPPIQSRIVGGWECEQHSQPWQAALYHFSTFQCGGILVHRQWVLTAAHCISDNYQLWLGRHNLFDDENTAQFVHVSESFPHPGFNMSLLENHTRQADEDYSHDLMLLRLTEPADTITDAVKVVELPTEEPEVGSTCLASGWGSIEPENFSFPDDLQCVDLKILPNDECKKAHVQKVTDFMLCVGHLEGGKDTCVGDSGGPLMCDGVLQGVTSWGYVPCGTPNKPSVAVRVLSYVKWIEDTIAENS
Plasma kallikrein, sequence (P03952 20-390 limits assumed): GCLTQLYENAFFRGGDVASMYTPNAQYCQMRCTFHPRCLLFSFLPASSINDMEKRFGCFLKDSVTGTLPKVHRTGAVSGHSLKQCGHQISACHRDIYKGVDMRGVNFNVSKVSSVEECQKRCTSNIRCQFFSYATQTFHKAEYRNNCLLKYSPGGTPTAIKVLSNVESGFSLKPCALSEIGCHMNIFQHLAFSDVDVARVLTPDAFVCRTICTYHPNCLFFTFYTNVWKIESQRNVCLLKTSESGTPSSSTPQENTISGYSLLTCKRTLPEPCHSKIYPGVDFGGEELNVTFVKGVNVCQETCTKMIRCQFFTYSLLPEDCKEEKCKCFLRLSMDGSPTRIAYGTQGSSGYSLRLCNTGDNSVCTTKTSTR
Plasma kallikrein, sequence (P03952 391-638 limits assumed): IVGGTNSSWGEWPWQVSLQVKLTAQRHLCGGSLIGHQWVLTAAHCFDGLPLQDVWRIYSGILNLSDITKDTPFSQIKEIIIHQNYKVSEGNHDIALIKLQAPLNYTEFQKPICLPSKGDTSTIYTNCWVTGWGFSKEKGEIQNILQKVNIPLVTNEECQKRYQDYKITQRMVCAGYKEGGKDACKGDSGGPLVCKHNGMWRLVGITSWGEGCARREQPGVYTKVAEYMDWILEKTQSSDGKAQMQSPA

CCOc1ccc(C[C@@H](NC(=O)c2ccc(C)cc2)C(=O)N[C@@H](Cc2ccccc2)C(=O)NCc2ccc(CN)cc2)cc1
IC50 (Kallikrein-1): > 10000 nM
IC50 (Plasma kallikrein): 32 nM
IC50 (Coagulation factor XII): > 10000 nM

CCCOc1ccc(C[C@@H](NC(=O)c2ccccc2)C(=O)N[C@@H](Cc2ccccc2)C(=O)NCc2ccc(CN)cc2)cc1
IC50 (Kallikrein-1): 9500 nM
IC50 (Plasma kallikrein): 40 nM

NCc1ccc(CNC(=O)[C@H](Cc2ccccc2)NC(=O)[C@@H](Cc2ccc(OCc3ccccc3)cc2)NC(=O)c2ccccc2)cc1
IC50 (Kallikrein-1): > 10000 nM
IC50 (Plasma kallikrein): 1210 nM

CCOc1ccc(C[C@@H](NC(=O)c2ccccc2)C(=O)N[C@@H](Cc2c[nH]c3ccccc23)C(=O)NCc2ccc(CN)cc2)cc1
IC50 (Kallikrein-1): > 10000 nM
IC50 (Plasma kallikrein): 28 nM

NCc1ccc(CNC(=O)[C@H](Cc2ccccc2)NC(=O)[C@H](N)CC2CCCCC2)cc1
IC50 (Kallikrein-1): > 1000 nM
IC50 (Plasma kallikrein): 740 nM

CCOc1ccc(C[C@@H](NC(=O)c2ccc(OC)cc2)C(=O)N[C@@H](Cc2ccccc2)C(=O)NCc2ccc(CN)cc2)cc1
IC50 (Kallikrein-1): > 10000 nM
IC50 (Plasma kallikrein): 46 nM
IC50 (Coagulation factor XII): > 10000 nM
